# Measurements reported in patent publication US7687515B2, “6-phenyl-1H-imidazo[4,5-c]pyridine-4-carbonitrile derivatives” (priority 2006, dated 2010).
# Target: recombinant human Cathepsin S (Homo sapiens, UniProt P25774)
# Assay: Cathepsin S assay: inhibition of recombinant human Cathepsin S (Z-Val-Val-Arg-AMC fluorescence)
# Type: biochemical
# Description: Cathepsin S Assay Procedure
# 25 μl of a 2 mg/l solution of activated recombinant human cathepsin S, in assay buffer, is then added to the well, yielding a final inhibitor concentration of 10 μM.
# Enzyme activity is determined by measuring the fluorescence of the liberated aminomethylcoumarin at […] using 390 nm excitation, at 20 minutes. Percentage enzyme activity is calculated by comparison of this activity to that of a solution containing no inhibitor.
# recombinant human Cathepsin S, sequence (P25774 115-331): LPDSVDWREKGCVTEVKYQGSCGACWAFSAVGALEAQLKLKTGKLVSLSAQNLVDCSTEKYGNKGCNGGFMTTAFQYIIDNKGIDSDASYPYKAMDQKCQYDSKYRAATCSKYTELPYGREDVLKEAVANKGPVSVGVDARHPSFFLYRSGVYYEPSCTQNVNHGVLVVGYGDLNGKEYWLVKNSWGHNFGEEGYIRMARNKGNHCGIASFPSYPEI
row,Structure (SMILES),IC50 [nM]
1,"CCOc1ccc(-c2cc3[nH]cnc3c(C#N)n2)cc1C(F)(F)F [Example 1, 6-(4-Ethoxy-3-trifluoromethyl-phenyl)-1H-imidazo[4.5-c]pyridine-4-carbonitrile]",< 100
2,"CCOc1ccc(-c2cc3c(ncn3CC(=O)O)c(C#N)n2)cc1C(F)(F)F [Example 3, [4-Cyano-6-(4-ethoxy-3-trifluoromethyl-phenyl)-imidazo[4,5-c]pyridin-1-yl]-acetic acid]",< 100
3,"CCOc1ccc(-c2cc3[nH]c(CN4CCNC(=O)C4)nc3c(C#N)n2)cc1C(F)(F)F [Example 5d, 6-(4-Ethoxy-3-trifluoromethyl-phenyl)-2-(3-oxo-piperazine-1-ylmethyl)-1H-imidazo[4,5,c]pyridine-4-carbonitrile]",< 100
4,"CCOc1ccc(-c2cc3c(ncn3CCN3CCOCC3)c(C#N)n2)cc1C(F)(F)F [Example 9a, 6-(4-Ethoxy-3-trifluoromethyl-phenyl)-1-(2-morpholin-4-yl-ethyl)-1H-imidazo[4,5-c]pyridine-4-carbonitrile]",< 100
5,"CCOc1ccc(-c2cc3c(ncn3CCN3CCCCC3)c(C#N)n2)cc1C(F)(F)F [Example 9d, 6-(4-Ethoxy-3-trifluoromethyl-phenyl)-1-(2-piperidin-1-yl-ethyl)-1H-imidazo[4,5-c]-pyridine-4-carbonitrile]",< 100
6,"CCOc1ccc(-c2cc3c(ncn3CCN(C)C)c(C#N)n2)cc1C(F)(F)F [Example 9f, 1-(2-Dimethylamino-ethyl)-6-(4-ethoxy-3-trifluoromethyl-phenyl)-1H-imidazo [4,5-c]pyridine-4-carbonitrile]",< 100
7,"CCOc1ccc(-c2cc3c(ncn3CCCN3CCOCC3)c(C#N)n2)cc1C(F)(F)F [Example 10a, 6-(4-Ethoxy-3-trifluoromethyl-phenyl)-1-(3-morpholin-4-yl-propyl)-1H-imidazo[4,5-c]pyridine-4-carbonitrile]",< 100
8,"CCOc1ccc(-c2cc3c(ncn3CCCN(C)C)c(C#N)n2)cc1C(F)(F)F [Example 10f, 1-(3-Dimethylamino-propyl)-6-(4-ethoxy-3-trifluoromethyl-phenyl)-1H-imidazo-[4,5-c]pyridine-4-carbonitrile]",< 100
9,"CCOc1ccc(-c2cc3[nH]c(CN4CCN(C)CC4)nc3c(C#N)n2)cc1C(F)(F)F [Example 11a, 6-(4-Ethoxy-3-trifluoromethyl-phenyl)-2-(4-methyl-piperazin-1-ylmethyl)-1H-imidazo-[4,5-c]pyridine-4-carbonitrile]",< 100
10,"CCOc1ccc(-c2cc3[nH]c(CNCCO)nc3c(C#N)n2)cc1C(F)(F)F [Example 11h, 6-(4-Ethoxy-3-trifluoromethyl-phenyl)-2-[(2-hydroxy-ethylamino)-methyl]-1H-imidazo[4,5-c]pyridine-4-carbonitrile]",< 100
11,"CCOc1ccc(-c2cc3[nH]c(CN4CNC(=O)C4)nc3c(C#N)n2)cc1C(F)(F)F [Example 13d, 6-(4-Ethoxy-3-trifluoromethyl-phenyl)-2-(4-oxo-imidazolidin-1-ylmethyl)-1H-imidazo[4,5-c]pyridine-4-carbonitrile]",< 100
12,"CCOc1ccc(-c2cc3[nH]c(CN4CCN(CCOC)CC4)nc3c(C#N)n2)cc1C(F)(F)F [Example 13i, 6-(4-Ethoxy-3-trifluoromethyl-phenyl)-2-[4-(2-methoxy-ethyl)-piperazin-1-yl-methyl]-1H-imidazo[4,5-c]pyridine-4-carbonitrile]",< 100
